Values of other authors as cited in patent US20160008277A1, “CO-PACKAGED DRUG PRODUCTS” (Lightlake Therapeutics Inc., priority 2014, published 2016).

Tests used:
rat = conditions: intravenous; cited from earlier work
newborn rats = conditions: acute subcutaneous; cited from earlier work
mouse = conditions: intravenous; cited from earlier work

Question: With `C=CCN1CC[C@]23c4c5ccc(O)c4O[C@H]2C(=O)CC[C@@]3(O)[C@H]1C5.Cl` [naloxone hydrochloride, 17-allyl-4,5a-epoxy-3,14-dihydroxymorphinan-6-one hydrochloride] as the compound, how does the LD50 (rat) read?
Answer: 109 ± 4 mg/kg

Question: And the “LD50 (95% CL)” value (newborn rats)?
Answer: 260 (228-296) mg/kg

Question: And the LD50 (mouse)?
Answer: 150 ± 5 mg/kg
